Assay results from EP1282604B1, “SUBSTITUTED CAPROLACTAM CARBONATES AND ETHERS AND THEIR USE AS ANTI-TUMOR AGENTS” (Novartis AG, priority 2000, dated 2001).

Key:
[1] = system: MDA-MB-435 tumor xenografts; assay: Human tumor xenograft growth inhibition in athymic nude mice; type: in vivo; conditions: 2 mg/kg iv, 3X/week for 3 weeks
Description: Utilizing this model, one can measure the ability of test compounds to inhibit the growth of human tumor xenografts growing subcutaneously (s.c.) in athymic nude mice. The histologic tumor type employed was MDA-MB-435 breast carcinoma for Ex.1 and 7 and A549 non-small cell lung carcinoma for Ex. 1-3.
MDA-MB-435 human breast carcinoma: Treatments were started 15 d post implantation (3 x 10^6 cells/mouse), when a mean tumor volume of approximately 45 mm^3 was reached. Ex.1 and 7 were administered iv at three times per week for 3 weeks (days 15, 17, 20, 22, 24, 27, 29, and 31), at 3.3, 10, and 33 µmol/kg. Doxorubicin was administered iv at 2 mg/kg using the same schedule. Each data point represents tumor growth (mean ± SEM), or body weight (mean), with an initial group size of n = 8, from a representative experiment performed twice. An asterisk (*) indicates p < 0.05 using a one-tailed Student's t-test.
Toxicity was monitored by recording average group body weights twice weekly, and by daily observation of general health. Efficacy was monitored by taking measurements of tumor length, width, and depth weekly using digital calipers coupled to automated data collectors. Mean tumor volume (MTV) at initiation of therapy was subtracted from final MTV in order to express the actual tumor growth during treatment (A MTV). Anti-tumor activity was expressed as %T/C (A MTV of treated group ÷ Δ MTV of control group X100%). Statistical significance was evaluated using a one-tailed Student's t-test (p<0.05).

[2] = system: U2OS osteosarcoma; assay: Anchorage Dependent Growth Monolayer Assay (ADGMA), MTS readout; type: cell-based; conditions: Homo sapiens, 72 h; 3-day exposure, U2OS cells; read-out: IC50 values (average ± S.D.) U2OS
Description: (§1) As indicated above, all of the compounds of formula I, and their corresponding pharmaceutically acceptable acid addition salts, are anti-tumor agents and are, therefore, useful in inhibiting the growth of various lymphomas, sarcomas, carcinomas, myelomas, and leukemia cell lines. […] This assay was adapted from the 60 cell line assay used by the National Cancer Institute (NCl) with the following modifications: 1) cell lines representative for the important tumor types, viz., MDA-MB-435 human breast, A549 non-small cell lung, H1299 lung, HCT-116 colon and PC-3 prostate carcinomas, and U2OS osteosarcomas were utilized; and 2) a tetrazolium derivative, viz., 3-(4,5-dimethylthiazol-2-yl)-5-(3-carboxymethoxyphenyl)-2-(4-sulfophenyl)-2H-tetrazolium, inner salt (MTS), was utilized to determine cell density.
(§2) The ADGMA compares the number of viable cells following a 3-day exposure to a test compound relative to a number of cells present at the time the test compound was added. […] The absorbance at 490 nm (A490) of the formazan derivative is proportional to the number of viable cells. The IC50 for a test compound is the concentration of compound required to reduce the final cell number to 50% of the final control cell number. If cell proliferation is inhibited, the assay further defines compounds as cytostatic (cell number after 3-day compound incubation >cell number at time of compound addition) or cytotoxic (cell number after 3-day compound incubation <cell number at time of compound addition).
(§3) The H1299 lung, HCT-116 colon, and PC-3 prostate carcinoma cell lines, and U2OS osteosarcoma cell line were obtained from the American Type Culture Collection (ATCC) and used between passages 4-20 following thawing. H1299 and HCT-116 cells were maintained in RPMI 1640 containing 10% FBS, 100 units/mL penicillin and 100 µg/mL streptomycin; PC-3 cells were maintained in Kahn's Modification containing 10% FBS, 100 units/mL penicillin and 100 µg/mL streptomycin; and U2OS cells were maintained in DMEM containing 10% FBS, 100 units/mL penicillin and 100 µg/mL streptomycin.
(§4) Cell lines are trypsinized and counted using a Coulter counter to determine plating densities. Cells are then plated in their respective maintenance media (100 µL/well) in 96 well plates at the following densities: MDA-MB-435 and U2OS, 3,000 cells/well; A549 and HCT-116, 700 cells/well; H1299, 1,000 cells/well; and PC-3, 2500 cells/well. The number of cells plates as determined in preliminary experiments, results in cell densities of 75-90% of confluency by 4 days after plating. Initial cell densities, assayed one day after plating, are roughly 0.15-0.20 absorbance units greater than the media blank. Ninety-six well plates are seeded on day 0 and the test compounds are added on day 1. A control plate is created for each cell line that receives media only in row A and cells in row B. One day following plating, test compounds are added (in a final volume of 100 µL) to the test plates. Control plates receive 10 µL MTS mixture (prepared fresh on day of addition to cell plates at a ratio of 10 µL of a 0.92 mg/mL solution of PMS to a 190 µL of a 2 mg/mL solution of MTS) and 100 µL media. A490 of control plates is read 4 h after MTS addition to determine initial cell density values for each cell line. Three days after addition of test compound, 10 µL/well of MTS mixture is added to the test plates and A490 is read 4 h later. A490 values for wells containing cells are corrected for media absorbance, then normalized to initial density readings to determine percent net growth. IC50 values are determined from graphs of percent net growth as a function of compound concentration. Percent net growth is calculated as (Cell + Drug A490 - Initial A490/Cell + Drug Vehicle A490 - Initial A490) x 100%.

[3] = system: H1299 lung carcinoma; assay: as above; type: cell-based; conditions: Homo sapiens, NCI-H1299, 72 h; 3-day exposure, H1299 cells; read-out: IC50 values (average ± S.D.) H1299
Description: as §1, §2, §3, §4

[4] = system: PC-3 prostate carcinoma; assay: as above; type: cell-based; conditions: Homo sapiens, 72 h; 3-day exposure, PC-3 cells; read-out: IC50 values (average ± S.D.) PC-3
Description: as §1, §2, §3, §4

[5] = system: HCT-116 colon carcinoma; assay: as above; type: cell-based; conditions: Homo sapiens, 72 h; 3-day exposure, HCT-116 cells; read-out: IC50 values (average ± S.D.) HCT-116
Description: as §1, §2, §3, §4

[6] = system: MDA-MB-435 human breast carcinoma; assay: as above; type: cell-based; conditions: Homo sapiens, 72 h; 3-day exposure, MDA-MB-435 cells; read-out: IC50 values (average ± S.D.) MDA-MB-435
Description: as §1, §2
(§5) The MDA-MB-435 human breast carcinoma and the A549 non-small cell lung carcinoma lines were obtained from the American Type Culture Collection (ATCC) and used between passages 4-20 following thawing. MDA-MB-435 human breast carcinoma and A549 non-small cell lung carcinoma cells were maintained and plated in DME/F12 medium containing 10% fetal bovine serum, 15 mM HEPES (pH=7.4), 100 units/mL penicillin, and 100 µg/mL streptomycin.
as §4

[7] = system: A549 non-small cell lung carcinoma; assay: as above; type: cell-based, human; conditions: Homo sapiens, 72 h; 3-day exposure, A549 cells; read-out: IC50 values (average ± S.D.) A549
Description: as §1, §2, §5, §4

Compound	Dead/Total [1]	Δ MTV [1] [mm^3]	%T/C ([1]; * = p<0.05)	IC50 [2] [nM]	IC50 [3] [nM]	IC50 [4] [nM]	IC50 [5] [nM]	IC50 [6] [nM]	IC50 [7] [nM]
COc1cccc2c1C(=O)c1c(O)c3c(c(O)c1C2=O)C[C@@](O)(C(=O)CO)C[C@@H]3O[C@H]1C[C@H](N)[C@H](O)[C@H](C)O1 [doxorubicin, reference compound]	0/8	82	46* %	130 ± 30	430 ± 290	330 ± 120	80 ± 60	400 ± 10	500 ± 160
CO[C@@H](C(=O)N[C@H]1CC[C@@H](OC(=O)OCc2ccccc2)CNC1=O)[C@H](O)[C@@H](O)[C@H](O)/C=C/C(C)(C)C [Ex. 4, (2R, 3R, 4S, 5R, 6E)-3,4,5-trihydroxy-2-methoxy-8,8-dimethyl-N-[(3S, 6R)-hexahydro-2-oxo-6-([[phenylmethoxy]carbonyl]oxy)-2H-azepin-3-yl]non-6-enonamide]	–	–	–	250 ± 140	170 ± 130	80	80 ± 10	130 ± 70	158 ± 16
